Where “and” joins values, the source holds several entries; their conditions need not be identical. Equal entries are not always repeated.
Legend:
Details in all cases: incubation time: 72 h
[1] = test system: BT-474; experiment: normalised response (% of control), CellTiter-Glo; higher = more viable cells (100 = DMSO, 0 = benzethonium chloride kill control)
Procedure, shortened: (§1)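 Breast cancer cell lines, seeded at 20 µl suspension per well, were incubated for 72 h in 384-well plates containing compound at 5 concentrations. These concentrations rose in 10-fold steps over a 10,000-fold range set for each compound. CellTox Green fluorescence (485/520 nm) was read, then CellTiter-Glo luminescence after 10 min at room temperature, and each plate was normalised to 0.1 % DMSO (100) and a positive kill control (0). Values are normalised signals, each at one concentration.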

[2] = test system: BT-549; experiment: as above
Procedure, shortened: as §1

[3] = test system: CAL-120; experiment: as above
Procedure, shortened: as §1

[4] = test system: CAL-148; experiment: as above
Procedure, shortened: as §1

[5] = test system: CAL-51; experiment: as above
Procedure, shortened: as §1

[6] = test system: CAL-85-1; experiment: as above
Procedure, shortened: as §1

[7] = test system: DU-4475; experiment: as above
Procedure, shortened: as §1

[8] = test system: HCC1143; experiment: as above
Procedure, shortened: as §1

[9] = test system: HCC1599; experiment: as above
Procedure, shortened: as §1

[10] = test system: HCC1937; experiment: as above
Procedure, shortened: as §1

[11] = test system: HDQ-P1; experiment: as above
Procedure, shortened: as §1

[12] = test system: Hs578T; experiment: as above
Procedure, shortened: as §1

[13] = test system: MCF-10A; experiment: as above
Procedure, shortened: as §1

[14] = test system: MDA-MB-231; experiment: as above
Procedure, shortened: as §1

[15] = test system: MDA-MB-436; experiment: as above
Procedure, shortened: as §1

[16] = test system: MDA-MB-453; experiment: as above
Procedure, shortened: as §1

[17] = test system: MDA-MB-468; experiment: as above
Procedure, shortened: as §1

[18] = test system: MFM-223; experiment: as above
Procedure, shortened: as §1

[19] = test system: SK-BR-3; experiment: as above
Procedure, shortened: as §1

[20] = test system: BT-474; experiment: normalised viability (% of control), CellTiter-Blue; higher = more viable cells (100 = DMSO, 0 = benzethonium chloride kill control)
Description: (§2)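 DSRT, CellTiter-Blue viability, 72 h incubation. Signal is normalised to DMSO and benzethonium chloride controls. Value is the normalised response at dose 1.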

[21] = test system: BT-549; experiment: as above
Description: as §2

[22] = test system: CAL-120; experiment: as above
Description: as §2

[23] = test system: CAL-148; experiment: as above
Description: as §2

[24] = test system: CAL-51; experiment: as above
Description: as §2

[25] = test system: CAL-85-1; experiment: as above
Description: as §2

[26] = test system: DU-4475; experiment: as above
Description: as §2

[27] = test system: HCC1143; experiment: as above
Description: as §2

[28] = test system: HCC1599; experiment: as above
Description: as §2

[29] = test system: HCC1937; experiment: as above
Description: as §2

[30] = test system: HDQ-P1; experiment: as above
Description: as §2

[31] = test system: Hs578T; experiment: as above
Description: as §2

[32] = test system: MDA-MB-231; experiment: as above
Description: as §2

[33] = test system: MDA-MB-436; experiment: as above
Description: as §2

[34] = test system: MDA-MB-453; experiment: as above
Description: as §2

[35] = test system: MDA-MB-468; experiment: as above
Description: as §2

[36] = test system: MFM-223; experiment: as above
Description: as §2

[37] = test system: SK-BR-3; experiment: as above
Description: as §2

[38] = test system: CAL-148; experiment: normalised viability (% of control), CellTiter-Blue; higher = more viable cells (about 100 = DMSO control)
Description: (§3)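 DSRT, CellTiter-Blue viability, 72 h incubation. Signal is normalised to DMSO and benzethonium chloride controls. Value is the normalised response at dose 8.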

[39] = test system: CAL-51; experiment: as above
Description: as §3

[40] = test system: CAL-85-1; experiment: as above
Description: as §3

[41] = test system: DU-4475; experiment: as above
Description: as §3

[42] = test system: HDQ-P1; experiment: as above
Description: as §3

[43] = test system: MDA-MB-453; experiment: as above
Description: as §3

Molecule `Cc1cc(Nc2nc(N[C@@H](C)c3ncc(F)cn3)ncc2Cl)[nH]n1` [AZD1480] (0.1 nM) has a normalised response [1] of 98.7%, a normalised response [2] of 104% and a normalised response [3] of 100%. For the same molecule, the normalised response [4] was 95.5%, the normalised response [5] was 117% and the normalised response [6] was 102%. For the same molecule, the normalised response [7] was 97.2%, the normalised response [8] was 96.7% and the normalised response [9] was 78.9%. It also gave a normalised response [10] of 102%, a normalised response [11] of 104% and a normalised response [12] of 96.8%. It also gave a normalised response [13] of 102%, a normalised response [14] of 98.3% and a normalised response [15] of 104%. It also gave a normalised response [16] of 101%, a normalised response [17] of 94.8% and a normalised response [18] of 94.9%. It also gave a normalised response [19] of 98.7%, a normalised viability [20] of 114% and a normalised viability [21] of 109%. For the same molecule, the normalised viability [22] was 93.4%, the normalised viability [23] was 112% and the normalised viability [24] was 118%. The normalised viability [25] was 91.2%, the normalised viability [26] was 115% and the normalised viability [27] was 98.1%. It also gave a normalised viability [28] of 97%, a normalised viability [29] of 122% and a normalised viability [30] of 124%. The normalised viability [31] was 116%, the normalised viability [32] was 93.5% and the normalised viability [33] was 114%. For the same molecule, the normalised viability [34] was 102%, the normalised viability [35] was 111% and the normalised viability [36] was 92.3%. It also gave a normalised viability [37] of 105%.
In the case of `C=CCN(/C=C1/C(=O)O[C@H](COC)[C@@]2(C)C1=C(O)C(=O)C1=C2[C@H](OC(C)=O)C[C@]2(C)C(=O)CC[C@@H]12)CC=C` [PX-866] (1 nM), the normalised viability [20] is reported as 102%, the normalised viability [21] is reported as 105% and the normalised viability [22] is reported as 97.7%. It also gave a normalised viability [23] of 114%, a normalised viability [24] of 112% and a normalised viability [25] of 97%. It also gave a normalised viability [26] of 118%, a normalised viability [27] of 99.8% and a normalised viability [28] of 104%. The normalised viability [29] was 83.9%, the normalised viability [30] was 107% and the normalised viability [31] was 98.6%. The normalised viability [32] was 97.6%, the normalised viability [33] was 94.8% and the normalised viability [34] was 101%. For the same molecule, the normalised viability [35] was 96.6%, the normalised viability [36] was 87.4% and the normalised viability [37] was 96.3%.
`CC[C@H](CO)Nc1nc(NCc2ccccc2)c2ncn(C(C)C)c2n1` [Roscovitine] (1 nM) showed a normalised viability [20] of 91%, a normalised viability [21] of 105% and a normalised viability [22] of 83.7%. The normalised viability [23] was 87.1%, the normalised viability [24] was 101% and the normalised viability [25] was 82.8%. The normalised viability [26] was 103%, the normalised viability [27] was 95.5% and the normalised viability [28] was 101%. For the same molecule, the normalised viability [29] was 81.3%, the normalised viability [30] was 83.1% and the normalised viability [31] was 96.3%. The normalised viability [32] was 110%, the normalised viability [33] was 114% and the normalised viability [34] was 104%. For the same molecule, the normalised viability [35] was 93.7%, the normalised viability [36] was 96.5% and the normalised viability [37] was 92.9%.
`COc1c2occc2cc2ccc(=O)oc12` [Methoxsalen] (1 nM) gave a normalised viability [20] of 79.9%, a normalised viability [21] of 97.6% and a normalised viability [22] of 107%. For the same molecule, the normalised viability [23] was 112%, the normalised viability [24] was 100% and the normalised viability [25] was 92.3%. The normalised viability [26] was 96.2%, the normalised viability [27] was 101% and the normalised viability [28] was 104%. It also gave a normalised viability [29] of 93.8%, a normalised viability [30] of 106% and a normalised viability [31] of 103%. It also gave a normalised viability [32] of 105%, a normalised viability [33] of 116% and a normalised viability [34] of 103%. It also gave a normalised viability [35] of 109%, a normalised viability [36] of 93.1% and a normalised viability [37] of 104%.
Work on `CC(C)C[C@H](NC(=O)[C@@H](COC(C)(C)C)NC(=O)[C@H](Cc1ccc(O)cc1)NC(=O)[C@H](CO)NC(=O)[C@H](Cc1c[nH]c2ccccc12)NC(=O)[C@H](Cc1cnc[nH]1)NC(=O)[C@@H]1CCC(=O)N1)C(=O)N[C@@H](CCCNC(=N)N)C(=O)N1CCC[C@H]1C(=O)NNC(N)=O` [Goserelin] (3000 nM) yielded a normalised viability [38] of 99.8%, a normalised viability [39] of 108% and a normalised viability [40] of 103%. It also gave a normalised viability [41] of 92.5%, a normalised viability [42] of 106% and a normalised viability [43] of 122%.
`Cc1cn(-c2cc(NC(=O)c3ccc(C)c(Nc4nccc(-c5cccnc5)n4)c3)cc(C(F)(F)F)c2)cn1` [Nilotinib] (3000 nM) was tested, and the normalised viability [38] was 83.9% and 89.2%, the normalised viability [39] was 108% and 115% and the normalised viability [40] was 69.3% and 78.6%. The normalised viability [41] was 97.8% and 107%, the normalised viability [42] was 67.9% and 66.5% and the normalised viability [43] was 87.6% and 97.1%.
`C=CCn1c(=O)c2cnc(Nc3ccc(N4CCN(C)CC4)cc3)nc2n1-c1cccc(C(C)(C)O)n1` [MK1775] (3000 nM) showed a normalised viability [38] of 6.03%, a normalised viability [39] of 7.19% and a normalised viability [40] of 19.2%. For the same molecule, the normalised viability [41] was 2.03%, the normalised viability [42] was 27.3% and the normalised viability [43] was 19.3%.
With `CC[C@H](CO)Nc1nc(NCc2ccccc2)c2ncn(C(C)C)c2n1` [Roscovitine] (3000 nM) the normalised viability [38] was 80.4%, the normalised viability [39] was 107% and the normalised viability [40] was 82.6%. For the same molecule, the normalised viability [41] was 114%, the normalised viability [42] was 91% and the normalised viability [43] was 86.5%.
`CN(Cc1cnc2nc(N)nc(N)c2n1)c1ccc(C(=O)N[C@@H](CCC(=O)O)C(=O)O)cc1` [Methotrexate] (1 nM) showed a normalised viability [20] of 101%, a normalised viability [21] of 92.2% and a normalised viability [22] of 90.5%. The normalised viability [23] was 110%, the normalised viability [24] was 106% and the normalised viability [25] was 95.9%. The normalised viability [26] was 114%, the normalised viability [27] was 95.6% and the normalised viability [28] was 93.6%. The normalised viability [29] was 84.6%, the normalised viability [30] was 114% and the normalised viability [31] was 130%. It also gave a normalised viability [32] of 93.5%, a normalised viability [33] of 109% and a normalised viability [34] of 101%. For the same molecule, the normalised viability [35] was 93%, the normalised viability [36] was 99.9% and the normalised viability [37] was 88.7%.
With `CC(O)(CS(=O)(=O)c1ccc(F)cc1)C(=O)Nc1ccc(C#N)c(C(F)(F)F)c1` (centres undefined) [Bicalutamide] (3000 nM) the normalised viability [38] was 103%, the normalised viability [39] was 120% and the normalised viability [40] was 101%. The normalised viability [41] was 103%, the normalised viability [42] was 96.8% and the normalised viability [43] was 114%.
Work on `CCN(CC)CCCC(C)Nc1ccnc2cc(Cl)ccc12` (centres undefined) [Chloroquine] (0.099 nM) yielded a normalised viability [20] of 100%, a normalised viability [21] of 107% and a normalised viability [22] of 85.9%. For the same molecule, the normalised viability [23] was 97.1%, the normalised viability [24] was 90% and the normalised viability [25] was 87.6%. The normalised viability [26] was 111%, the normalised viability [27] was 99.2% and the normalised viability [28] was 96.9%. The normalised viability [29] was 89.7%, the normalised viability [30] was 112% and the normalised viability [31] was 101%. For the same molecule, the normalised viability [32] was 112%, the normalised viability [33] was 111% and the normalised viability [34] was 107%. The normalised viability [35] was 108%, the normalised viability [36] was 102% and the normalised viability [37] was 91.9%.
With `COc1cc(Nc2c(C#N)cnc3cc(OCCCN4CCN(C)CC4)c(OC)cc23)c(Cl)cc1Cl` [Bosutinib] (3000 nM) the normalised viability [38] was 39.8%, the normalised viability [39] was 80.3% and the normalised viability [40] was 54.3%. It also gave a normalised viability [41] of 98.6%, a normalised viability [42] of 44.2% and a normalised viability [43] of 50.1%.
`COc1c2occc2cc2ccc(=O)oc12` [Methoxsalen] (3000 nM) showed a normalised viability [38] of 91.4%, a normalised viability [39] of 112% and a normalised viability [40] of 96.2%. For the same molecule, the normalised viability [41] was 94.6%, the normalised viability [42] was 118% and the normalised viability [43] was 114%.
